# From US6979572B1, “Compositions and methods for inhibiting inward-rectifier potassium channels” (Trustees of the University of Pennsylvania, priority 1998, dated 2005)
# Square brackets hold non-standard residues; d marks the D form. Ends that are not written are not given here. Met(O) = CS(=O)CC[C@H](N)C(=O)O
# Columns and labels:
# [1] = biological target: T1, ROMK1 inward-rectifier K+ channel (Rattus norvegicus, UniProt P35560); conditions: literature values; read-out: Kd for block of ROMK1; cited from earlier work
# T1 sequence (P35560 1-391): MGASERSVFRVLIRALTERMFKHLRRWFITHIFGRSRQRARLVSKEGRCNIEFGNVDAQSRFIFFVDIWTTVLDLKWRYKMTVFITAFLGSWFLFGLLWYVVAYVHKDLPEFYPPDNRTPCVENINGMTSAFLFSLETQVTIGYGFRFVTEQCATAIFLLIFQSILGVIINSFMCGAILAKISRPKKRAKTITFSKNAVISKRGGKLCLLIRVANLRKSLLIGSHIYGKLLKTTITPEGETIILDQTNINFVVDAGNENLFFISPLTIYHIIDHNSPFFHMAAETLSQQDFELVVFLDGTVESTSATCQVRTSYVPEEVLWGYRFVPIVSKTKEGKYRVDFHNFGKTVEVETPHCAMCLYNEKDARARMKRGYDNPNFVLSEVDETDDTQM
# ROMK1 channel = biological target: T2, ROMK1 channel (Rattus norvegicus, UniProt P35560); experiment: Two-electrode voltage clamp of wild-type ROMK1 channel in Xenopus oocytes; assay type: cell-based
# T2 construct: expressed in transfected cells; host or cells: Xenopus laevis oocytes (cRNA injection)
# T2 sequence (P35560 1-391): T1 sequence (P35560 1-391)
# Protocol: Oocytes harvested from Xenopus laevis frogs were digested with collagenase (2 mg/mL) in a solution containing: NaCl, 82.5 mM; KCl, 2.5 mM; MgCl2, 1.0 mM; HEPES, 5.0 mM (pH 7.6) and were agitated on a platform shaker at a rate of 80 rpm for 90 minutes. The oocytes were then rinsed thoroughly with and stored in a solution containing: gentamicin, 50 μg/mL; NaCl, 96 mM; KCl, 2 mM; CaCl2, 1.8 mM; MgCl, 1 mM; HEPES, 5 mM (pH 7.6). Defolliculated oocytes were selected at least 2 hours after the collagenase digestion. To express channels, the corresponding cRNA was directly injected into oocytes. To express the GIRK1/4 channel, GIRK1 and GIRK4 cRNAs were co-injected with either M2 or M4 receptor cRNA. All injections were carried out at least 16 hours after the collagenase treatment. The injected oocytes were stored in an 18° C. incubator.
# All three inward-rectifier K^+ channels, GIRK1/4, ROMK1, and IRK1, were studied using a two-electrode voltage clamp amplifier (Oocyte Clamp OC-725C, Warner Instruments Corp.). The resistance of electrodes filled with 3 M KCl were 0.2–0.4 M Ω. To elicit current through the channel, the membrane potential of oocytes was stepped to −80 mV (100–125 ms) and then to +80 mV (100–125 ms) from the holding potential of 0 mV. […] Tertiapin concentration was calculated using an extinction coefficient 6.1 mM^−1 cm^−1 at 280 nm wavelength. […]
Substance,Kd [1],"sensitivity / affinity of the ROMK1 channel, in words (ROMK1 channel)"
Δ-dendrotoxin,150 nM,–
"oxidized form of tertiapin: tertiapin whose methionine residue M13 has become oxidized (ALCNCNRIIIPH[Met(O)]CWKKCGKK; disulfide (positions not given here); ends not checked; UniProt P56587 1-21, looked up)",–,lower affinity than the non-oxidized form
